A word on the Ki: it is a measure of affinity in units of concentration, obtained from inhibition or displacement. Read a high Ki as lower affinity.

The target of this experiment is human GCGR (Homo sapiens (Human), UniProt P47871). Nature of the experiment: Cellular functional assay, cAMP readout (glucagon-stimulated cAMP in HEK293 cells expressing human GCGR). Type of experiment: cell-based. The conditions noted are these: hGluc-1 HEK cells, LANCE TR-FRET, IC50 converted to Ki, average if tested more than once. The procedure:
IC50 Values in Cellular Functional Assays: cAMP Readout
Full-length human GCGR (Accession Number: NM000160) subcloned into pcDNA3.1 was stably transfected into HEK293 cells (hGluc-1 HEK) and maintained under G418 selection (500 μg/mL). Cell cultures were maintained in DMEM/F12 media supplemented with 10% FBS and 1% GlutaMax. Glucagon stimulated cAMP was quantified using LANCE technology as per manufacturer instructions. On the day of the experiment, spent media was removed and cells were washed with Hank's Buffered Saline solution (HBSS) and cells were harvested with non-enzymatic cell dissociation solution, then washed once with HBSS. Cells were re-suspended in stimulation buffer at a concentration of 0.83×10^6 cells/ml and cAMP detection antibody was added. 6 μl/well of this solution was then dispensed in a 384 well plate (cell density 5000 cells/well). Test compound was serially diluted in DMSO and 50 nl were dispensed on top of the cell solution and allowed to incubate for 30 minutes. 6 μl of a 2× glucagon solution (final concentration in assay […]) was then added and the reaction was terminated after 5 minutes with the addition of detection mix. The mixture was incubated, protected from light for 1.5 h. cAMP levels were quantified by TR-FRET in an EnVision instrument against a known standard. IC50's were generated by using a non-linear regression macro driven in Excel and converted to K, values.
In general terms: Time-resolved FRET reads energy transfer from a long-lived donor to a nearby acceptor.

human GCGR, sequence (P47871 26-477): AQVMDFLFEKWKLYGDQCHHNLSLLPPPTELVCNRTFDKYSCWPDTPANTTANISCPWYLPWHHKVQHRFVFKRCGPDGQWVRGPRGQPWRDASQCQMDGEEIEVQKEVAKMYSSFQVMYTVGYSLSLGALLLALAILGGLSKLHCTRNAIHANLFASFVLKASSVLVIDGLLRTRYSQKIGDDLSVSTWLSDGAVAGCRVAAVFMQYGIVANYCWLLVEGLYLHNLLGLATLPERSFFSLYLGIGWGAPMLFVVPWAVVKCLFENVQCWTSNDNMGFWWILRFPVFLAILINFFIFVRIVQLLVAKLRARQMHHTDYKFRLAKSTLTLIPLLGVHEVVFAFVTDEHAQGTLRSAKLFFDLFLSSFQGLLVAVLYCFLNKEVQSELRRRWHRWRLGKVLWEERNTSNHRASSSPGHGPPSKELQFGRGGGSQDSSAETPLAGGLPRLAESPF

Regarding `COc1ccc(CNc2ccc(-c3cccc(OC(F)(F)F)c3)cc2)c(-c2ccc(C(=O)NCCC(=O)O)nc2)c1` [Compound 50, 3-(5-(5-methoxy-2-(((3′-(trifluoromethoxy)-[1,1′-biphenyl]-4-yl)amino)methyl)phenyl)picolinamido)propanoic acid], the Ki was greater than 20000 nM.

`O=C(O)CCNC(=O)c1ccc(-c2cc(Cl)ccc2CNc2ccc(-c3ccc(F)cc3F)cc2)cn1` [Compound 18, 3-(5-(5-chloro-2-(((2′,4′-difluoro-[1,1′-biphenyl]-4-yl)amino)methyl)phenyl)picolinamido)propanoic acid] returned a Ki of 280 nM. The same measure for `COc1ccc(CNc2ccc(-c3ccc(Cl)cc3)cc2)c(-c2ccc(C(=O)NCCC(=O)O)nc2)c1` [Compound 45, 3-(5-(2-(((4′-chloro-[1,1′-biphenyl]-4-yl)amino)methyl)-5-methoxyphenyl)picolinamido)propanoic acid]: greater than 20000 nM; for `COc1cc(C(F)(F)F)cc(-c2ccc(C(=O)NCCC(=O)O)nc2)c1CNc1cc(Cl)c(-c2ccc(Cl)cc2)c(Cl)c1` [Compound 160, 3-(5-(3-methoxy-2-(((2,4′,6-trichloro-[1,1′-biphenyl]-4-yl)amino)methyl)-5-(trifluoromethyl)phenyl)picolinamido)propanoic acid]: 650 nM.

`O=C(O)CCNC(=O)c1ccc(-c2cc(C(F)(F)F)ccc2CNc2ccc(-c3ccc(F)c(C(F)(F)F)c3)c(C(F)(F)F)c2)cn1` [Compound 121, 3-(5-(2-(((4′-fluoro-2,3′-bis(trifluoromethyl)-[1,1′-biphenyl]-4-yl)amino)methyl)-5-(trifluoromethyl)phenyl)picolinamido)propanoic acid] gave a Ki of 100 nM. The same measure for `N#Cc1cc(NCc2ccc(Cl)cc2-c2ccc(C(=O)NCCC(=O)O)nc2)ccc1-c1cccc(C(F)(F)F)c1Cl` [Compound 101, 3-(5-(5-chloro-2-(((2′-chloro-2-cyano-3′-(trifluoromethyl)-[1,1′-biphenyl]-4-yl)amino)methyl)phenyl)picolinamido)propanoic acid]: 95 nM.

On to `O=C(O)CCNC(=O)c1ccc(-c2cc(C(F)(F)F)ccc2CNc2ccc(-c3ccc(C(F)(F)F)cc3)c(C(F)(F)F)c2)cn1` [Compound 127, 3-(5-(2-(((2,4′-bis(trifluoromethyl)-[1,1′-biphenyl]-4-yl)amino)methyl)-5-(trifluoromethyl)phenyl)picolinamido)propanoic acid], for which the affinity corresponds to a Ki of 70 nM. The same measure for `O=C(O)CCNC(=O)c1ccc(-c2cc(C(F)(F)F)ccc2CNc2ccc(-c3ccc(F)cc3F)c(C(F)(F)F)c2)cn1` [Compound 125, 3-(5-(2-(((2′,4′-difluoro-2-(trifluoromethyl)-[1,1′-biphenyl]-4-yl)amino)methyl)-5-(trifluoromethyl)phenyl)picolinamido)propanoic acid]: 205 nM. The same measure for `Cc1cc(Cl)ccc1-c1ccc(NCc2c(C)cc(C(F)(F)F)cc2-c2ccc(C(=O)NCCC(=O)O)nc2)cc1Cl` [Compound 165, 3-(5-(2-(((2,4′-dichloro-2′-methyl-[1,1′-biphenyl]-4-yl)amino)methyl)-3-methyl-5-(trifluoromethyl)phenyl)picolinamido)propanoic acid]: 6.4 nM; for `Cc1cc(C(F)(F)F)ccc1-c1ccc(NCc2c(-c3ccc(C(=O)NCCC(=O)O)nc3)cc(C(F)(F)F)cc2C2CC2)cc1Cl` [Compound 177, 3-(5-(2-(((2-chloro-2′-methyl-4′-(trifluoromethyl)-[1,1′-biphenyl]-4-yl)amino)methyl)-3-cyclopropyl-5-(trifluoromethyl)phenyl)picolinamido)propanoic acid]: 5.3 nM. With `Cc1cc(C(F)(F)F)ccc1-c1ccc(NCc2c(-c3ccccc3)cc(C(F)(F)F)cc2-c2ccc(C(=O)NCCC(=O)O)nc2)cc1Cl` [Compound 179, 3-(5-(2-(((2-chloro-2′-methyl-4′-(trifluoromethyl)-[1,1′-biphenyl]-4-yl)amino)methyl)-5-(trifluoromethyl)-[1,1′-biphenyl]-3-yl)picolinamido)propanoic acid] the figure was 19.6 nM; with `COc1ccc(CNc2ccc(-c3ccc(C(F)(F)F)cc3)cc2)c(-c2ccc(C(=O)NCCC(=O)O)nc2)c1` [Compound 47, 3-(5-(5-methoxy-2-(((4′-(trifluoromethyl)-[1,1′-biphenyl]-4-yl)amino)methyl)phenyl)picolinamido)propanoic acid], greater than 20000 nM; with `COc1cc(C(F)(F)F)cc(-c2ccc(C(=O)NCCC(=O)O)nc2)c1CNc1ccc(-c2ccc(Cl)cc2)c(Cl)c1` [Compound 162, 3-(5-(2-(((2,4′-dichloro-[1,1′-biphenyl]-4-yl)amino)methyl)-3-methoxy-5-(trifluoromethyl)phenyl)picolinamido)propanoic acid], 46.9 nM. `N#Cc1cc(NCc2ccc(Cl)cc2-c2ccc(C(=O)NCCC(=O)O)nc2)ccc1-c1ccc(Cl)c(C(F)(F)F)c1` [Compound 98, 3-(5-(5-chloro-2-(((4′-chloro-2-cyano-3′-(trifluoromethyl)-[1,1′-biphenyl]-4-yl)amino)methyl)phenyl)picolinamido)propanoic acid]: the Ki turned out to be 195 nM. The same measure for `Cc1cc(C(F)(F)F)ccc1-c1ccc(NCc2ccc(C(F)(F)F)cc2-c2ccc(C(=O)NCCC(=O)O)nc2)cc1C(F)(F)F` [Compound 120, 3-(5-(2-(((2′-methyl-2,4′-bis(trifluoromethyl)-[1,1′-biphenyl]-4-yl)amino)methyl)-5-(trifluoromethyl)phenyl)picolinamido)propanoic acid]: 37.4 nM; for `O=C(O)CCNC(=O)c1ccc(-c2cc(C(F)(F)F)ccc2CNc2ccc(-c3ccc(Cl)cc3F)c(C(F)(F)F)c2)cn1` [Compound 126, 3-(5-(2-(((4′-chloro-2′-fluoro-2-(trifluoromethyl)-[1,1′-biphenyl]-4-yl)amino)methyl)-5-(trifluoromethyl)phenyl)picolinamido)propanoic acid]: greater than 5200 nM. Regarding `O=C(O)CCNC(=O)c1ccc(-c2cc(C(F)(F)F)cc(O)c2CNc2ccc(-c3ccc(Cl)cc3)c(Cl)c2)cn1` [Compound 164, 3-(5-(2-(((2,4′-dichloro-[1,1′-biphenyl]-4-yl)amino)methyl)-3-hydroxy-5-(trifluoromethyl)phenyl)picolinamido)propanoic acid], the affinity, expressed as Ki, was 61.2 nM.

In turn, `O=C(O)CCNC(=O)c1ccc(-c2cc(C(F)(F)F)ccc2CNc2ccc(-c3ccc(Cl)cc3C(F)(F)F)cc2)cn1` [Compound 25] came in with a Ki of 220 nM.

The compound `Cc1cc(Cl)ccc1-c1ccc(NCc2c(-c3ccc(C(=O)NCCC(=O)O)nc3)cc(C(F)(F)F)cc2C(F)(F)F)cc1` [Compound 81, 3-(5-(2-(((4′-chloro-2′-methyl-[1,1′-biphenyl]-4-yl)amino)methyl)-3,5-bis(trifluoromethyl)phenyl)picolinamido)propanoic acid] gave a Ki of 10 nM. The same measure for `N#Cc1cc(NCc2ccc(Cl)cc2-c2ccc(C(=O)NCCC(=O)O)nc2)ccc1-c1ccc(Cl)cc1Cl` [Compound 99, 3-(5-(5-chloro-2-(((2′,4′-dichloro-2-cyano-[1,1′-biphenyl]-4-yl)amino)methyl)phenyl)picolinamido)propanoic acid]: 65.4 nM.
